Patent US9765068B2, “PRMT5 inhibitors and uses thereof” (Epizyme, Inc., priority 2012, dated 2017)

These compounds were tested against PRMT5/MEP50 (Homo sapiens (Human), UniProt O14744) (assay: PRMT5 Biochemical Assay (PRMT5/MEP50 enzyme assay on peptide substrate, 3H-SAM Flashplate)). Conditions: PRMT5/MEP50 4 nM, 3H-SAM 75 nM, peptide 40 nM.
PRMT5/MEP50, sequence (O14744 other isoform, or with tags, fused parts or gaps): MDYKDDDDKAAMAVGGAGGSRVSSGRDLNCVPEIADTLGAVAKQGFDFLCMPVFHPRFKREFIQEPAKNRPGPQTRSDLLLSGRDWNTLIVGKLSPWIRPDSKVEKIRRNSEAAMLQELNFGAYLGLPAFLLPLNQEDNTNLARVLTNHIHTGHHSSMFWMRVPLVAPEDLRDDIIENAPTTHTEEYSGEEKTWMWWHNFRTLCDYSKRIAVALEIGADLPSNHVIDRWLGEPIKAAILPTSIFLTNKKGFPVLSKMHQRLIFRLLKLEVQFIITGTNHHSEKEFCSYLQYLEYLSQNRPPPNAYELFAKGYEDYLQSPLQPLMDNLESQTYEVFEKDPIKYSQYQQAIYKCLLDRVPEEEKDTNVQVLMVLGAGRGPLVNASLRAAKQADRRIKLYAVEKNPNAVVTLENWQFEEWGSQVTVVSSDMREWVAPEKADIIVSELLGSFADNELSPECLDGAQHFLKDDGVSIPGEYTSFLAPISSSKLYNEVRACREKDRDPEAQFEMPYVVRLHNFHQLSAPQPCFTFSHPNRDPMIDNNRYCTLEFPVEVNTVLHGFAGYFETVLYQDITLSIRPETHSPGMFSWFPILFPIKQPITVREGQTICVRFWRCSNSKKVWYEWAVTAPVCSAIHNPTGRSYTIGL
PRMT5/MEP50, sequence (Q9BQA1 other isoform, or with tags, fused parts or gaps partner): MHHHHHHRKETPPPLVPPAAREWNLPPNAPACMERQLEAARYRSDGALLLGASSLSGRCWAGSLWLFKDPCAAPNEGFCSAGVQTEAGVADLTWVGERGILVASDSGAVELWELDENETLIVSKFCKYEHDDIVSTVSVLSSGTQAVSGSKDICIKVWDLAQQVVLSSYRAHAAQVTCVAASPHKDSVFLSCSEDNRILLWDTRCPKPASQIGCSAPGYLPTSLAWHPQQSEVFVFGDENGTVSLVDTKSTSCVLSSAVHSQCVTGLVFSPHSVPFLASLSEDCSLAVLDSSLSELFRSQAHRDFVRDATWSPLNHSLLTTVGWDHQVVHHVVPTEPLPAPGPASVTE
From the text: General Materials. S-adenosylmethionine (SAM), S-adenosylhomocysteine (SAH), bicine, KCl, Tween20, dimethylsulfoxide (DMSO), bovine skin gelatin (BSG), and Tris(2-carboxyethyl)phosphine hydrochloride solution (TCEP) were purchased from Sigma-Aldrich at the highest level of purity possible. ^3H-SAM was purchase from American Radiolabeled Chemicals with a specific activity of 80 Ci/mmol. 384-well streptavidin Flashplates were purchased from PerkinElmer.
Substrates. Peptide representative of human histone H4 residues 1-15 was synthesized with a C-terminal linker-affinity tag motif and a C-terminal amide cap by 21st Century Biochemicals. […] The sequence was Ac-[…][K-Biot]-amide (SEQ ID NO.:3).
Full-length human MEP50 (NM_024102) clone was amplified from a human testis cDNA library incorporating a 5′ sequence encoding a 6-histidine tag (MHHHHHH) (SEQ ID NO.:5) fused directly to Arg 2 of MEP50. The amplified genes were sublconed into pENTR/D/TEV (Life Technologies) and subsequently transferred by Gateway™ attL×attR recombination to pDEST8 baculvirus expression vector (Life Technologies).
Protein Expression. Recombinant baculovirus and Baculovirus-Infected Insect Cells (BIIC) were generated according to Bac-to-Bac kit instructions (Life Technologies) and Wasilko, 2006, respectively. Protein over-expression was accomplished by infecting exponentially growing Spodoptera frugiperda (SF9) cell culture at 1.2×10^6 cell/ml with a 5000 fold dilution of BIIC stock. Infections were carried out at 27° C. for 72 hours, harvested by centrifugation, and stored at −80° C. for purification.
Protein Purification. […] Flag-PRMT5/6His-MeP50 was eluted with 300 mM Imidazole in the same buffer. […] Reference: Wasilko, D. J. and S. E. Lee: “TIPS: titerless infected-cells preservation and scale-up” Bioprocess J., 5 (2006), pp. 29-32.
General Procedure for PRMT5/MEP50 Enzyme Assays on Peptide Substrates.
The assays were all performed in a buffer consisting of 20 mM Bicine (pH=7.6), 1 mM TCEP, 0.005% BSG, and 0.002% Tween20, prepared on the day of use. Compounds in 100% DMSO (1 ul) were spotted into a polypropylene 384-well V-bottom plates (Greiner) using a Platemate Plus outfitted with a 384-channel head (Thermo Scientific). DMSO (1 ul) was added to Columns 11, 12, 23, 24, rows A-H for the maximum signal control and 1 ul of SAH, a known product and inhibitor of PRMT5/MEP50, was added to columns 11, 12, 23, 24, rows I-P for the minimum signal control. A cocktail (40 ul) containing the PRMT5/MEP50 enzyme and the peptide was added by Multidrop Combi (Thermo-Fisher). The compounds were allowed to incubate with PRMT5/MEP50 for 30 min at 25 degrees Celsius, then a cocktail (10 ul) containing ^3H-SAM was added to initiate the reaction (final volume=51 ul). The final concentrations of the components were as follows: PRMT5/MEP50 was 4 nM, ^3H-SAM was 75 nM, peptide was 40 nM, SAH in the minimum signal control wells was 100 uM, and the DMSO concentration was 1%. The assays were stopped by the addition of non-radioactive SAM (10 ul) to a final concentration of 600 uM, which dilutes the ^3H-SAM to a level where its incorporation into the peptide substrate is no longer detectable. 50 ul of the reaction in the 384-well polypropylene plate was then transferred to a 384-well Flashplate and the biotinylated peptides were allowed to bind to the streptavidin surface for at least 1 hour before being washed three times with 0.1% Tween20 in a Biotek ELx405 plate washer. The plates were then read in a PerkinElmer TopCount plate reader to measure the quantity of ^3H-labeled peptide bound to the Flashplate surface, measured as disintegrations per minute (dpm) or alternatively, referred to as counts per minute (cpm).
[formula] Where dpm=disintegrations per minute, cmpd=signal in assay well, and min and max are the respective minimum and maximum signal controls.
In the case of `O=C(COc1ccccc1)NCC(O)CN1CCc2ccccc2C1` (centres unmarked) [Compound 1, N-(3-(3,4-dihydroisoquinolin-2(1H)-yl)-2-hydroxypropyl)-2-phenoxyacetamide], the IC50 is reported as 0.101 to 1 µM.
In the case of `O=C(CCc1ccccc1)NCC(O)CN1CCc2ccccc2C1` (centres unmarked) [Compound 2], the IC50 is reported as 1 to 10 µM.
`CN(CC(O)CN1CCc2ccccc2C1)C(=O)CCc1ccccc1` (centres unmarked) [Compound 3] showed an IC50 of 1 to 10 µM.
`CN(CC(O)CN1CCc2ccccc2C1)C(=O)COc1ccccc1` (centres unmarked) [Compound 5] showed an IC50 of 10 to 50 µM.
Compound `O=C(COc1cccc(F)c1)NCC(O)CN1CCc2ccccc2C1` (centres unmarked) [Compound 7, N-(3-(3,4-dihydroisoquinolin-2(1H)-yl)-2-hydroxypropyl)-2-(3-fluorophenoxy)acetamide] has an IC50 of 0.101 to 1 µM.
In the case of `N#Cc1cccc(OCC(=O)NCC(O)CN2CCc3ccccc3C2)c1` (centres unmarked) [Compound 8, 2-(3-cyanophenoxy)-N-(3-(3,4-dihydroisoquinolin-2(1H)-yl)-2-hydroxypropyl)acetamide], the IC50 is reported as 0.101 to 1 µM.
Compound `Cc1ccc(OCC(=O)NCC(O)CN2CCc3ccccc3C2)cc1` (centres unmarked) [Compound 9, N-(3-(3,4-dihydroisoquinolin-2(1H)-yl)-2-hydroxypropyl)-2-(p-tolyloxy)acetamide] has an IC50 of 0.101 to 1 µM.
`O=C(COc1ccc(F)cc1)NCC(O)CN1CCc2ccccc2C1` (centres unmarked) [Compound 10] was tested, and the IC50 was 1 to 10 µM.
`N#Cc1ccc(OCC(=O)NCC(O)CN2CCc3ccccc3C2)cc1` (centres unmarked) [Compound 11] gave an IC50 of 0.101 to 1 µM.
`COc1ccc(OCC(=O)NCC(O)CN2CCc3ccccc3C2)cc1` (centres unmarked) [Compound 12, N-(3-(3,4-dihydroisoquinolin-2(1H)-yl)-2-hydroxypropyl)-2-(4-methoxyphenoxy)acetamide] showed an IC50 of 0.101 to 1 µM.
Compound `NC(=O)c1ccc(OCC(=O)NCC(O)CN2CCc3ccccc3C2)cc1` (centres unmarked) [Compound 13] has an IC50 of 1 to 10 µM.
For `CS(=O)(=O)c1ccc(OCC(=O)NCC(O)CN2CCc3ccccc3C2)cc1` (centres unmarked) [Compound 14], the IC50 was 1 to 10 µM.
For `Cc1ccccc1OCC(=O)NCC(O)CN1CCc2ccccc2C1` (centres unmarked) [Compound 15, N-(3-(3,4-dihydroisoquinolin-2(1H)-yl)-2-hydroxypropyl)-2-(o-tolyloxy)acetamide], the IC50 was 0.101 to 1 µM.
With `O=C(COc1ccccc1F)NCC(O)CN1CCc2ccccc2C1` (centres unmarked) [Compound 16] the IC50 was 0.101 to 1 µM.
For `N#Cc1ccccc1OCC(=O)NCC(O)CN1CCc2ccccc2C1` (centres unmarked) [Compound 17], the IC50 was 0.101 to 1 µM.
For `O=C(CNc1ccccc1)NCC(O)CN1CCc2ccccc2C1` (centres unmarked) [Compound 18], the IC50 was 1 to 10 µM.
Compound `CC(=O)Nc1ccc(OCC(=O)NCC(O)CN2CCc3ccccc3C2)cc1` (centres unmarked) [Compound 21, 2-(4-acetamidophenoxy)-N-(3-(3,4-dihydroisoquinolin-2(1H)-yl)-2-hydroxypropyl)acetamide] has an IC50 of 0.101 to 1 µM.
Compound `O=C(COC1CCCCC1)NCC(O)CN1CCc2ccccc2C1` (centres unmarked) [Compound 24, 2-(cyclohexyloxy)-N-(3-(3,4-dihydroisoquinolin-2(1H)-yl)-2-hydroxypropyl)acetamide] has an IC50 of 0.101 to 1 µM.
`CC(C)(Oc1ccccc1)C(=O)NCC(O)CN1CCc2ccccc2C1` (centres unmarked) [Compound 25, N-(3-(3,4-dihydroisoquinolin-2(1H)-yl)-2-hydroxypropyl)-2-methyl-2-phenoxypropanamide] gave an IC50 of 0.101 to 1 µM.
With `NC(=O)c1ccccc1OCC(=O)NCC(O)CN1CCc2ccccc2C1` (centres unmarked) [Compound 29] the IC50 was 0.101 to 1 µM.
In the case of `CC(=O)Nc1cccc(OCC(=O)NCC(O)CN2CCc3ccccc3C2)c1` (centres unmarked) [Compound 31, 2-(3-acetamidophenoxy)-N-(3-(3,4-dihydroisoquinolin-2(1H)-yl)-2-hydroxypropyl)acetamide], the IC50 is reported as 1 to 10 µM.
`O=C(COc1ccccc1)NC[C@H](O)CN1CCc2ccccc2C1` [Compound 32] was tested, and the IC50 was 0.101 to 1 µM.
In the case of `O=C(COc1ccccc1)NC[C@@H](O)CN1CCc2ccccc2C1` [Compound 33], the IC50 is reported as 1 to 10 µM.
`NC(=O)c1cccc(OCC(=O)NCC(O)CN2CCc3ccccc3C2)c1` (centres unmarked) [Compound 34, 3-(2-((3-(3,4-dihydroisoquinolin-2(1H)-yl)-2-hydroxypropyl)amino)-2-oxoethoxy)benzamide] showed an IC50 of 0.101 to 1 µM.
With `CN(C)c1ccc(OCC(=O)NCC(O)CN2CCc3ccccc3C2)cc1` (centres unmarked) [Compound 35] the IC50 was 0.101 to 1 µM.
For `CC(=O)Nc1ccccc1OCC(=O)NCC(O)CN1CCc2ccccc2C1` (centres unmarked) [Compound 36], the IC50 was 0.101 to 1 µM.
In the case of `O=C(COC1CCOCC1)NCC(O)CN1CCc2ccccc2C1` (centres unmarked) [Compound 41], the IC50 is reported as 1 to 10 µM.
`CS(=O)(=O)Nc1ccc(OCC(=O)NCC(O)CN2CCc3ccccc3C2)cc1` (centres unmarked) [Compound 42] was tested, and the IC50 was 0.101 to 1 µM.
In the case of `O=C(COc1cccc2cccnc12)NC[C@H](O)CN1CCc2ccccc2C1` [Compound 44, (S)—N-(3-(3,4-dihydroisoquinolin-2(1H)-yl)-2-hydroxypropyl)-2-(quinolin-8-yloxy)acetamide], the IC50 is reported as 0.101 to 1 µM.
In the case of `Cn1cnc2cc(OCC(=O)NCC(O)CN3CCc4ccccc4C3)ccc21` (centres unmarked) [Compound 46, N-(3-(3,4-dihydroisoquinolin-2(1H)-yl)-2-hydroxypropyl)-2-((1-methyl-1H-benzo[d]imidazol-5-yl)oxy)acetamide], the IC50 is reported as 0.101 to 1 µM.
`O=C(Cc1ccncc1)NCC(O)CN1CCc2ccccc2C1` (centres unmarked) [Compound 51] gave an IC50 of 10 to 50 µM.
`NS(=O)(=O)c1ccc(OCC(=O)NCC(O)CN2CCc3ccccc3C2)cc1` (centres unmarked) [Compound 52] gave an IC50 of 1 to 10 µM.
`Cn1nccc1-c1cccc(CC(=O)NCC(O)CN2CCc3ccccc3C2)c1` (centres unmarked) [Compound 54, N-(3-(3,4-dihydroisoquinolin-2(1H)-yl)-2-hydroxypropyl)-2-(3-(1-methyl-1H-pyrazol-5-yl)phenyl)acetamide] was tested, and the IC50 was 0.101 to 1 µM.
With `O=C(Cc1ccccc1)NC[C@H](O)CN1CCc2ccccc2C1` [Compound 55] the IC50 was 0.101 to 1 µM.
Compound `O=C(CC1CCCCC1)NC[C@H](O)CN1CCc2ccccc2C1` [Compound 56] has an IC50 of 1 to 10 µM.
With `O=C(Cc1ccccc1)NC[C@@H](O)CN1CCc2ccccc2C1` [Compound 57] the IC50 was 10 to 50 µM.
In the case of `O=C(CC1CCCCC1)NC[C@@H](O)CN1CCc2ccccc2C1` [Compound 58], the IC50 is reported as 10 to 50 µM.
Work on `O=C(Cc1cccc2cccnc12)NCC(O)CN1CCc2ccccc2C1` (centres unmarked) [Compound 60, N-(3-(3,4-dihydroisoquinolin-2(1H)-yl)-2-hydroxypropyl)-2-(quinolin-8-yl)acetamide] yielded an IC50 of 0.101 to 1 µM.
`Cn1cnc2ccc(NCC(=O)NCC(O)CN3CCc4ccccc4C3)cc21` (centres unmarked) [Compound 69] showed an IC50 of 0.101 to 1 µM.
In the case of `C[C@H](Oc1cccc2cccnc12)C(=O)NC[C@@H](O)CN1CCc2ccccc2C1` [Compound 72], the IC50 is reported as 1 to 10 µM.
`O=C(COc1ccccc1N1CCOCC1)NC[C@@H](O)CN1CCc2ccccc2C1` [Compound 78] gave an IC50 of 0.101 to 1 µM.
`O=C(COc1cccc(C(=O)N2CCOCC2)c1)NCC(O)CN1CCc2ccccc2C1` (centres unmarked) [Compound 83] gave an IC50 of 0.101 to 1 µM.
Work on `CN1CCN(c2ccccc2OCC(=O)NC[C@@H](O)CN2CCc3ccccc3C2)CC1` [Compound 85] yielded an IC50 of 1 to 10 µM.
`O=C(COc1ccccc1OCCN1CCOCC1)NC[C@@H](O)CN1CCc2ccccc2C1` [Compound 87] gave an IC50 of 1 to 10 µM.
Compound `CN(C)CCOc1ccccc1OCC(=O)NC[C@@H](O)CN1CCc2ccccc2C1` [Compound 89] has an IC50 of 0.101 to 1 µM.
Compound `COc1ccc2cccc(OCC(=O)NC[C@H](O)CN3CCc4ccccc4C3)c2n1` [Compound 97] has an IC50 of 0.101 to 1 µM.
For `CN(C)c1ccc2cccc(OCC(=O)NC[C@H](O)CN3CCc4ccccc4C3)c2n1` [Compound 104], the IC50 was 0.101 to 1 µM.
`CS(=O)(=O)N1CCN(c2ccccc2OCC(=O)NCC(O)CN2CCc3ccccc3C2)CC1` (centres unmarked) [Compound 106] showed an IC50 of 0.101 to 1 µM.
`CNC(=O)c1ccccc1OCC(=O)NCC(O)CN1CCc2ccccc2C1` (centres unmarked) [Compound 112] showed an IC50 of 0.101 to 1 µM.
With `CN(C)C(=O)c1ccccc1OCC(=O)NCC(O)CN1CCc2ccccc2C1` (centres unmarked) [Compound 113] the IC50 was 0.101 to 1 µM.
